Results reported in US11884708B2, “Stapled peptide inhibitors of nemo as potential anti-inflammatory and anti-cancer drugs” (INSTITUT PASTEUR, priority 2015, dated 2024).
Like-named read-outs stand apart in the source and are kept apart here. Where a SMILES comes first, the peptide text is derived from it. Bridges are numbered along the chain shown (N, C = ends). Where no end group is shown, it is not given here. [ ]: non-standard residue; d: D form. The star is where a group is joined. BODIPYFLEthylmaleimide = Cc1cc(C)n2c1C=C1C=CC(CCC(=O)NCCN3C(=O)CC(*)C3=O)=[N+]1[B-]2(F)F; R8 = C=CCCCCCC[C@@](C)(N)C(=O)O; S5 = C=CCCC[C@](C)(N)C(=O)O

Legend:
[1] = target: NF-κB pathway (Mus musculus, UniProt O88522); experiment: NF-κB inhibition assay, LPS-stimulated 70Z3-C3 lacZ reporter cells; assay type: cell-based; conditions: 70Z3-C3 cells, 2 h peptide then LPS 4 h, N.I = No inhibition observed; for IC50: read-out: IC 50 NF-κB inhibition
Source text: The stable cell line of pre-B lymphocyte 70Z3-C3 cells expressing the lacZ reporter gene under the control of NF-κB was previously described. OCI-Ly3 (ABC-DLBCL, MALT1 dependent) and OCI-Ly7 (GCB-DLBCL). U2932 (ABC-DLBCL, MALT1 independent) were purchased from DSMZ (Deutsche Sammlung von Mikroorganismen and Zellkulturen) and HLY1 (ABC-DLBCL, MALT1 independent). Jurkat T-cells were obtained after transduction of lentiviruses containing a NF-κB reporter luciferase gene as previously described. All cell lines were grown in RPMI 1640 medium supplemented with 10% FBS, 10 μg/ml of streptomycin, 10 U/ml of penicillin and kept at 37° C., in a 5% CO2 humidified incubator. 0.05 mM of β-mercaptoethanol was added for 70Z3-C3. Primary and secondary antibodies were as following: polyclonal rabbit anti NF-κB p65, (sc-372, Santa Cruz Biotechnology, Inc) Alexa-488 coupled goat anti-rabbit IgG1 (Invitrogen) NF-κB inhibition assay was almost similar to those previously described in [1], except that luminescence data were monitored with a Centro XS^3, LB960 luminometer (Berthold technologies.), which is more sensitive. All experiments were performed in duplicates in 96-well plates. […] After 4 h incubation, cells were centrifuged 7 min at 400×g, at 4° C.

[2] = test system: 70Z3-C3 cells; experiment: Cellular uptake of BODIPY-labeled peptides by FACS; assay type: cell-based; conditions: 10 μM labeled peptide, 2 h, 37° C.
Procedure: 2.2×10^5 cells in 100 μl of 70Z3-C3 were incubated with either 10 μM or with various doses of 10 μM, 5 μM and 1 μM of labeled-peptides at 37° C., 5% CO2. Similarly to fluorescence microscopy experiments, cells alone or incubated with BODIPY®-labeled BSA (ref) or BODIPY®-UBI devoid of the antennapedia cell penetrating sequence were used as negative control, whereas cells with BA-UBI [1] at 10 μM were used as positive control. After 2 h incubation, cells were washed 4 times with PBS at room temperature, and finally diluted 1:3 in PBS before subjected to FACS analysis. Along with the BODIPY® fluorophore the fluorescence intensity was recorded at 525±25 nm using the Gallios Flow cytometer (Beckman Coulter) to analyse each cells sample. Each internalization peptide was assessed by gating a population of 15,000 events and the data were analysed using Kaluza software version 1.2.
For determination of cellular uptake by flow cytometry, the BA-UBI-SAHND306-Q313 stapled peptide was first incubated with 2.2×10^5 70Z3-C3 cells in […] either at 4° C. or 37° C. for 2 h. Bodipy-labeled BSA, bodipy alone and bodipy-UBI were used as negative controls to verify the washing quality and efficient removal of any non-specific binding at the cell surface before FACS analysis. […] After 2 h of incubation, cells were washed four times with PBS at room temperature and diluted at 1:3 in PBS for FACS analysis. Samples were analyzed as previously described in the European patent (No: 15307137.8).

[3] = target: CC2-LZ domain of NEMO (Mus musculus, UniProt O88522); experiment: Fluorescence anisotropy/polarization binding assay; conditions: for Kd: fixed peptide concentration 0.1 μM; for Binding affinity (FP) at 10 μM: fixed peptide concentration 10 μM
Procedure: Measurements were performed on a Tecan infinite F500 equipped with polarizing filters and using excitation and emission wavelengths at 485 nm and 535 nm, respectively. Anisotropy data were calculated using the Magellan software version 6.5. Prior experiments, the mouse CC2-LZ was extensively dialyzed in binding buffer containing 20 mM HEPES pH 7.4, 100 mM NaCl, and 0.05% P20 detergent (v/v). All experiments were performed in a 384 well plate (vol 25 μl) at room temperature. The BODIPY®-labeled peptide concentrations were fixed at 0.1 or 10 μM whereas the CC2-LZ concentration varied from 0 to 100 μM. Reference calibrated at 22 mP, was based on the fluorescence of the peptide alone. Each experimental binding curve was determined from at least 10 independent concentration points. The G-factor was calculated as previously described in Agou et al. [7], with a value of 0.75, which was observed constant within 5% upon all titrations. For analysis, the blank value corresponding to the value of buffer alone, was subtracted from all titration data.
All NEMO peptides were conjugated to an extra N-terminal cysteine with the fluorophore BODIPY® or FITC to determine their binding affinity for the CC2-LZ domain of NEMO (also called NOA or UBAN) by fluorescence polarization. For each peptide titration, various concentration of the target ranging from 0 to 100 μM and a fixed concentration of peptide at 0.1 or 10 μM were used at 25° C. […] For these reasons, all further titration experiments were performed with a fixed peptide concentration of 0.1 μM unless otherwise indicated.

[4] = Temperature-induced denaturation followed by CD; assay type: physicochemical; conditions: 30 μM or 300 μM, ΔCp ≈ 0; for Tm: thermal denaturation by CD; for ΔH: van't Hoff enthalpy change at Tm
Procedure: Temperature-induced denaturation experiments were performed by measuring the ellipticity at 222 nm from 1° C. to 95° C. in 1° C. steps, at a rate of 1° C./min, with a 2 nm bandwidth. Thermodynamic parameters including the melting temperature (Tm) and the van't Hoff enthalpy change at the melting temperature (ΔHm) were determined by fitting the denaturation curves with the Gibbs-Helmholtz equation as described elsewhere, [10]. The heat capacity change (ΔCp) was assumed to be 0 as judged by ΔHm which yielded similar values within 10% at two independent peptide concentrations (30 and 300 μM). The ellipticity was converted to differential extinction coefficient Δε (M^−1·cm^−1) per residue taking into account the peptide concentration determined by amino acid analysis.
Thermal stability of the peptides was also investigated by performing thermal denaturation profiles followed by CD (FIGS. 1 C and D and Table III). […] Indeed, the helicity of UBI-Aib (49%) is only 1.16-fold increased at 1° C. compared to UBI (42%), while its melting temperature (Tm=−8° C.) is 2.25 times higher than that of UBI (Tm=−18° C.).

[5] = CD spectroscopy, α-helical content; assay type: physicochemical; conditions: 50 μM peptide, phosphate buffer pH 7.0, UBI in TFE taken as 100%
[6] = read-out: Binding affinity (FP) at 0.1 μM

Chain of CC2-LZ domain of NEMO (O88522 242-343 limits assumed): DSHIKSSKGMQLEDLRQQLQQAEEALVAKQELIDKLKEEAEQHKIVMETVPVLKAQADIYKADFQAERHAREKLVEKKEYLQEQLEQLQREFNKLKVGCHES
Chain of NF-κB pathway (O88522 whole entry): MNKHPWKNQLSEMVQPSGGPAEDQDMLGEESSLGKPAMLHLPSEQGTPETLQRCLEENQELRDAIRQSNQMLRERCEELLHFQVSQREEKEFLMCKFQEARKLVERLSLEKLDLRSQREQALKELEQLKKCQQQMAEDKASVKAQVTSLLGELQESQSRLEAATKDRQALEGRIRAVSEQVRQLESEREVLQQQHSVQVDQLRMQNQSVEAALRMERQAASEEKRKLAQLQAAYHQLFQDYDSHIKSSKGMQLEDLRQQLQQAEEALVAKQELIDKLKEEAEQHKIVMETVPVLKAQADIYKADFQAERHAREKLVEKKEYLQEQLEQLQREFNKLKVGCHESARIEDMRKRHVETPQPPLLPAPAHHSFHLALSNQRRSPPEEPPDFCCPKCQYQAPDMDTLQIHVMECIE

LKX1QADIYKX4RFQAERHAREK [UBI-SAHN A303-A310]
IC 50 NF-κB inhibition [1]: N.I* | FACS peak median, first or only peak [2]: 8

CC[C@H](C)[C@@H]1NC(=O)[C@H](CC(=O)O)NC(=O)[C@H](C)NC(=O)[C@H](CCC(N)=O)NC(=O)[C@](C)(NC(=O)[C@H](CCCCN)NC(=O)[C@H](CC(C)C)NC(=O)[C@H](CCCCN)NC(=O)[C@H](CCCCN)NC(=O)[C@H](Cc2c[nH]c3ccccc23)NC(=O)[C@H](CCCCN)NC(=O)[C@H](CCSC)NC(=O)[C@H](CCCNC(=N)N)NC(=O)[C@H](CCCNC(=N)N)NC(=O)[C@H](CC(N)=O)NC(=O)[C@H](CCC(N)=O)NC(=O)[C@H](Cc2ccccc2)NC(=O)[C@H](Cc2c[nH]c3ccccc23)NC(=O)[C@@H](NC(=O)[C@H](CCCCN)NC(=O)[C@@H](NC(=O)[C@H](CCC(N)=O)NC(=O)[C@H](CCCNC(=N)N)NC(=O)[C@H](CSC2CC(=O)N(CCNC(=O)CCC3=[N+]4C(=Cc5c(C)cc(C)n5[B-]4(F)F)C=C3)C2=O)NC(C)=O)[C@@H](C)CC)[C@@H](C)CC)CCCCCCC=CCCC[C@@](C)(C(=O)N[C@@H](CCCNC(=N)N)C(=O)N[C@@H](Cc2ccccc2)C(=O)N[C@@H](CCC(N)=O)C(=O)N[C@@H](C)C(=O)N[C@@H](CCC(=O)O)C(=O)N[C@@H](CCCNC(=N)N)C(=O)N[C@@H](Cc2c[nH]cn2)C(=O)N[C@@H](C)C(=O)N[C@@H](CCCNC(=N)N)C(=O)N[C@@H](CCC(=O)O)C(=O)N[C@@H](CCCCN)C(N)=O)NC(=O)[C@H](CCCCN)NC(=O)[C@H](Cc2ccc(O)cc2)NC1=O (single isomer, unassigned) [A-UBI-SAHN A303-A310 (B)]
IC50 [1]: 600 nM

CC[C@H](C)[C@H](NC(=O)[C@H](CC(=O)O)NC(=O)[C@H](C)NC(=O)[C@H](CCC(N)=O)NC(=O)[C@H](C)NC(=O)[C@H](CCCCN)NC(=O)[C@@H](N)CC(C)C)C(=O)N[C@@H](Cc1ccc(O)cc1)C(=O)N[C@@H](CCCCN)C(=O)N[C@@H](C)C(=O)N[C@@H](CCCNC(=N)N)C(=O)N[C@@H](Cc1ccccc1)C(=O)N[C@@H](CCC(N)=O)C(=O)N[C@@H](C)C(=O)N[C@@H](CCC(=O)O)C(=O)N[C@@H](CCCNC(=N)N)C(=O)N[C@@H](Cc1c[nH]cn1)C(=O)N[C@@H](C)C(=O)N[C@@H](CCCNC(=N)N)C(=O)N[C@@H](CCC(=O)O)C(=O)N[C@@H](CCCCN)C(=O)O [UBI, reference compound] (H-LKAQADIYKARFQAERHAREK-OH)
IC 50 NF-κB inhibition [1]: N.I*

LKAQAX2IYKARFX5AERHAREK (LKAQA[R8]IYKARF[S5]AERHAREK; staple 6-13) [UBI-SAHN D306-Q313]
IC 50 NF-κB inhibition [1]: N.I* | FACS peak median, first or only peak [2]: 8 | FACS peak median, second peak [2]: 52

CC[C@H](C)[C@H](NC(=O)[C@H](CC(=O)O)NC(=O)[C@H](C)NC(=O)[C@H](CCC(N)=O)NC(=O)[C@H](C)NC(=O)[C@H](CCCCN)NC(=O)[C@H](CC(C)C)NC(=O)[C@H](CSC1CC(=O)N(CCNC(=O)CCC2=[N+]3C(=Cc4c(C)cc(C)n4[B-]3(F)F)C=C2)C1=O)NC(C)=O)C(=O)N[C@@H](Cc1ccc(O)cc1)C(=O)N[C@@H](CCCCN)C(=O)N[C@@]1(C)CCCC=CCCC[C@@](C)(C(=O)N[C@@H](CCC(=O)O)C(=O)N[C@@H](CCCNC(=N)N)C(=O)N[C@@H](Cc2c[nH]cn2)C(=O)N[C@@H](C)C(=O)N[C@@H](CCCNC(=N)N)C(=O)N[C@@H](CCC(=O)O)C(=O)N[C@@H](CCCCN)C(N)=O)NC(=O)[C@H](CCC(N)=O)NC(=O)[C@H](Cc2ccccc2)NC(=O)[C@H](CCCNC(=N)N)NC1=O (stereo partly drawn) [UBI-SAHN A310-A314, LKAQADIYKX4RFQX6ERHAREK] (Ac-C(BODIPYFLEthylmaleimide)LKAQADIYK[S5]RFQ[S5]ERHAREK-NH2; staple 11-15)
Kd [3, 6]: ~360000 nM | Binding affinity (FP) at 10 μM [3]: Very weak | IC 50 NF-κB inhibition [1]: N.I* | ΔS [4]: −11 cal. mol^−1.K^−1 | Tm [4]: 15 ± 0.3 C° | ΔH [4]: -3.2 kcal/mol | α-helical content at 1° C. [5]: 65%

CC(=O)N[C@@H](CSC1CC(=O)N(CCNC(=O)CCC2=[N+]3C(=Cc4c(C)cc(C)n4[B-]3(F)F)C=C2)C1=O)C(=O)N[C@@H](CC(C)C)C(=O)N[C@@H](CCCCN)C(=O)N[C@@]1(C)CCCC=CCCC[C@@](C)(C(=O)N[C@@H](Cc2ccc(O)cc2)C(=O)N[C@@H](CCCCN)C(=O)N[C@@H](C)C(=O)N[C@@H](CCCNC(=N)N)C(=O)N[C@@H](Cc2ccccc2)C(=O)N[C@@H](CCC(N)=O)C(=O)N[C@@H](C)C(=O)N[C@@H](CCC(=O)O)C(=O)N[C@@H](CCCNC(=N)N)C(=O)N[C@@H](Cc2c[nH]cn2)C(=O)N[C@@H](C)C(=O)N[C@@H](CCCNC(=N)N)C(=O)N[C@@H](CCC(=O)O)C(=O)N[C@@H](CCCCN)C(N)=O)NC(=O)[C@H](CC(=O)O)NC(=O)[C@H](C)NC(=O)[C@H](CCC(N)=O)NC1=O (stereo partly drawn) [UBI-SAHN A303-I307] (Ac-C(BODIPYFLEthylmaleimide)LK[S5]QAD[S5]YKARFQAERHAREK-NH2; staple 4-8)
Kd [3, 6]: ~360000 nM | Binding affinity (FP) at 10 μM [3]: Very weak | IC 50 NF-κB inhibition [1]: N.I* | ΔS [4]: −24 cal. mol^−1.K^−1 | Tm [4]: 19 ± 0.3 C° | ΔH [4]: -6.9 kcal/mol | FACS peak median, first or only peak [2]: 10 | α-helical content at 1° C. [5]: 70%

CC[C@H](C)[C@H](NC(=O)[C@H](CCCCN)NC(=O)[C@@H](NC(=O)[C@H](CCC(N)=O)NC(=O)[C@H](CCCNC(=N)N)NC(=O)[C@H](CSC1CC(=O)N(CCNC(=O)CCC2=[N+]3C(=Cc4c(C)cc(C)n4[B-]3(F)F)C=C2)C1=O)NC(C)=O)[C@@H](C)CC)C(=O)N[C@@H](Cc1c[nH]c2ccccc12)C(=O)N[C@@H](Cc1ccccc1)C(=O)N[C@@H](CCC(N)=O)C(=O)N[C@@H](CC(N)=O)C(=O)N[C@@H](CCCNC(=N)N)C(=O)N[C@@H](CCCNC(=N)N)C(=O)N[C@@H](CCSC)C(=O)N[C@@H](CCCCN)C(=O)N[C@@H](Cc1c[nH]c2ccccc12)C(=O)N[C@@H](CCCCN)C(=O)N[C@@H](CCCCN)C(=O)N[C@@H](CC(C)C)C(=O)N[C@@H](CCCCN)C(=O)N[C@@H](C)C(=O)N[C@@H](CCC(N)=O)C(=O)N[C@@H](C)C(=O)N[C@]1(C)CCCCCCC=CCCC[C@@](C)(C(=O)N[C@@H](C)C(=O)N[C@@H](CCC(=O)O)C(=O)N[C@@H](CCCNC(=N)N)C(=O)N[C@@H](Cc2c[nH]cn2)C(=O)N[C@@H](C)C(=O)N[C@@H](CCCNC(=N)N)C(=O)N[C@@H](CCC(=O)O)C(=O)N[C@@H](CCCCN)C(N)=O)NC(=O)[C@H](Cc2ccccc2)NC(=O)[C@H](CCCNC(=N)N)NC(=O)[C@H](C)NC(=O)[C@H](CCCCN)NC(=O)[C@H](Cc2ccc(O)cc2)NC(=O)[C@H]([C@@H](C)CC)NC1=O (single isomer, unassigned) [A-UBI-SAHN D306-Q313 (A)]
Kd ([3]; peptides with antennapedia, read-out: KD): 60 nM | IC50 [1]: 600 nM
